Results reported in US10780090B2, “Heteroaryl compounds useful as inhibitors of SUMO activating enzyme” (Millennium Pharmaceuticals, Inc., priority 2014, dated 2020).
pIC50: −log10 of the molar value.

Biological target: recombinant human SAE enzyme (Homo sapiens (Human), UniProt Q9UBT2)
Experiment: SAE HTRF enzyme assay
Assay type: biochemical
Details: for pIC50: class symbols A/B/C; for inhibition at 0.111 µM: read-out: Percent Inhibition
Outline: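 First, recombinant human SAE (0.11 nM) transfers Sumo-Flag onto Ubc9-GST using 0.5 μM ATP for 105 min at 24° C. Next, EDTA-containing detection buffer with labelled anti-Flag and anti-GST antibodies is added for 2 h. Finally, FRET is quantified and percent inhibition or IC50 derived.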

Sequence of recombinant human SAE enzyme (Q9UBT2 whole entry): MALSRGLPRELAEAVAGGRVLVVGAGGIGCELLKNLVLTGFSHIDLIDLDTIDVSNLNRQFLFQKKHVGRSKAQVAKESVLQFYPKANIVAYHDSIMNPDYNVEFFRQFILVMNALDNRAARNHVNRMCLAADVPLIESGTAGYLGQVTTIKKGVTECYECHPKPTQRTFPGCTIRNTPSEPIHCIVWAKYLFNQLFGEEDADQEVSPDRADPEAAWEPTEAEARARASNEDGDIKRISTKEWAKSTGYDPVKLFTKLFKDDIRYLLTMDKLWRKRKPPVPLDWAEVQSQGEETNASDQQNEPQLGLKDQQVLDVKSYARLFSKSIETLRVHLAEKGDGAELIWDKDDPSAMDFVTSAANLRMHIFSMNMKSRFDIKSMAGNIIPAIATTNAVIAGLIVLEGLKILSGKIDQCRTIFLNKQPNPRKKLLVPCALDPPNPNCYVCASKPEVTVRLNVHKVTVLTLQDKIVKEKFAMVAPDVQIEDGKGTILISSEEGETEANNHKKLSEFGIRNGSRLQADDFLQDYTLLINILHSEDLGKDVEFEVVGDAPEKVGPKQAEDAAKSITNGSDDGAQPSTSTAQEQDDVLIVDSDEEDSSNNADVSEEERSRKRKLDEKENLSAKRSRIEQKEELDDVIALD
Sequence of recombinant human SAE enzyme (Q9UBE0 whole entry partner): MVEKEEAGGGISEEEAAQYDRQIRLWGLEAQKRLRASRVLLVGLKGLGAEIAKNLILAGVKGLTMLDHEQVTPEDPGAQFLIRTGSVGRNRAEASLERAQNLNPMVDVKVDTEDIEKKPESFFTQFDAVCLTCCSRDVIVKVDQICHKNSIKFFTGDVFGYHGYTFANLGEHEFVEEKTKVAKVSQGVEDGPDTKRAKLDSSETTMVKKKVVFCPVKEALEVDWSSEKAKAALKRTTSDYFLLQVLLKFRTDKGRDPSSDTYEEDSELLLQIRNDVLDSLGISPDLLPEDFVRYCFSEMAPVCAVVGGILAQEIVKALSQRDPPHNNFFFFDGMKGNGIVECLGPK

## Cc1sc(C(=O)c2cncnc2N[C@@H]2C[C@H](COS(N)(=O)=O)[C@@H](O)C2)cc1[C@@H]1OCCc2ccc(C(F)(F)F)cc21 (mixture of isomers) [I-258, [(1R,2S,4R)-2-hydroxy-4-{[5-({5-methyl-4-[(1R)-7-(trifluoromethyl)-3,4-dihydro-1H-isochromen-1-yl]-2-thienyl}carbonyl)pyrimidin-4-yl]amino}cyclopentyl]methyl sulfamate and [(1R,2S,4R)-2-hydroxy-4-{[5-({5-methyl-4-[(1S)-7-(trifluoromethyl)-3,4-dihydro-1H-isochromen-1-yl]-2-thienyl}carbonyl)pyrimidin-4-yl]amino}cyclopentyl]methyl sulfamate]
Concentration 0.111 μM
  Percent Inhibition: 100
  pIC50: > 8.00

## COc1ccc2c(c1)N(Cc1cc(C(=O)c3cncnc3N[C@@H]3C[C@H](COS(N)(=O)=O)[C@@H](O)C3)sc1C)CC2 [I-126, [(1R,2S,4R)-2-hydroxy-4-{[5-({4-[(6-methoxy-2,3-dihydro-1H-indol-1-yl)methyl]-5-methyl-2-thienyl}carbonyl)pyrimidin-4-yl]amino}cyclopentyl]methyl sulfamate]
Concentration 0.111 μM
  inhibition at 0.111 µM: 98%
  pIC50: > 8.00

## Cc1cccc(Cc2csc(C(=O)c3cncnc3N[C@@H]3C[C@H](COS(N)(=O)=O)[C@@H](O)C3)c2)c1 [I-60, {(1R,2S,4R)-2-hydroxy-4-[(5-{[4-(3-methylbenzyl)-2-thienyl]carbonyl}pyrimidin-4-yl)amino]cyclopentyl}methyl sulfamate]
Concentration 0.111 μM
  inhibition at 0.111 µM: 99%

## Cc1sc(C(=O)c2cncnc2N[C@@H]2C[C@H](COS(N)(=O)=O)[C@@H](O)C2)cc1[C@H](O)c1cccc(Cl)c1 (single isomer, unassigned) [I-11a, [(1R,2S,4R)-4-{[5-({4-[(R)-(3-chlorophenyl)(hydroxy)methyl]-5-methyl-2-thienyl}carbonyl)pyrimidin-4-yl]amino}-2-hydroxycyclopentyl]methyl sulfamate or [(1R,2S,4R)-4-{[5-({4-[(S)-(3-chlorophenyl)(hydroxy)methyl]-5-methyl-2-thienyl}carbonyl)pyrimidin-4-yl]amino}-2-hydroxycyclopentyl]methyl sulfamate]
Concentration 0.111 μM
  Percent Inhibition: 93
  pIC50: > 8.00

## NS(=O)(=O)OC[C@H]1C[C@@H](Nc2ncncc2C(=O)c2ccc(Cc3ccccc3)o2)C[C@@H]1O [I-127, [(1R,2S,4R)-4-{[5-(5-benzyl-2-furoyl)pyrimidin-4-yl]amino}-2-hydroxycyclopentyl]methyl sulfamate]
Concentration 0.111 μM
  inhibition at 0.111 µM: 95%
  pIC50: > 8.00

## NS(=O)(=O)OC[C@H]1C[C@@H](Nc2ncncc2C(=O)c2cc(COc3ccccc3Cl)cs2)C[C@@H]1O [I-129, [(1R,2S,4R)-4-{[5-({4-[(2-chlorophenoxy)methyl]-2-thienyl}carbonyl)pyrimidin-4-yl]amino}-2-hydroxycyclopentyl]methyl sulfamate]
Concentration 0.111 μM
  inhibition at 0.111 µM: 95%
  pIC50: > 8.00

## NS(=O)(=O)OC[C@H]1C[C@@H](Nc2ncncc2C(=O)c2cc(C(=O)c3ccccc3)c(Cl)s2)C[C@@H]1O [I-215, [(1R,2S,4R)-4-({5-(4-Benzoyl-5-chlor-2-thienyl)carbonyl]pyrimidin-4-yl}amino)-2-hydroxycyclopentyl]methyl sulfamate]
Concentration 0.111 μM
  Percent Inhibition: 36
  pIC50: 6.00 to 7.00

## NS(=O)(=O)OC[C@H]1C[C@@H](Nc2ncncc2C(=O)c2cc([C@@H]3OCCc4cc(Cl)ccc43)cs2)C[C@@H]1O [I-357, [(1R,2S,4R)-4-[[5-[4-[(1R)-6-chloroisochroman-1-yl]thiophene-2-carbonyl]pyrimidin-4-yl]amino]-2-hydroxy-cyclopentyl]methyl sulfamate and [(1R,2S,4R)-4-[[5-[4-[(1S)-6-chloroisochroman-1-ylthiophene-2-carbonyl]pyrimidin-4-yl]amino}-2-hydroxy-cyclopentyl]methyl sulfamate]
SAE inhibition at compound concentration 0.111 μM
  Percent Inhibition: 97%
SAE inhibition, class symbols, legend in nM
  IC50: < 10 nM

## C#Cc1ccc2c(c1)[C@H](c1cc(C(=O)c3cncnc3N[C@@H]3C[C@H](COS(N)(=O)=O)[C@@H](O)C3)sc1C)OCC2 (single isomer, unassigned) [I-252a, [(1R,2S,4R)-4-{[5-({4-[(1R)-7-ethynyl-3,4-dihydro-1H-isochromen-1-yl]-5-methyl-2-thienyl}carbonyl)pyrimidin-4-yl]amino}-2-hydroxycyclopentyl]methyl sulfamate or [(1R,2S,4R)-4-{[5-({4-[(1S)-7-ethynyl-3,4-dihydro-1H-isochromen-1-yl]-5-methyl-2-thienyl}carbonyl)pyrimidin-4-yl]amino}-2-hydroxycyclopentyl]methyl sulfamate]
Concentration 0.111 μM
  Percent Inhibition: 71
  pIC50: 7.00 to 8.00

## Cc1oc(C(=O)c2cncnc2N[C@@H]2C[C@H](COS(N)(=O)=O)[C@@H](O)C2)cc1[C@@H]1OCCc2ccc(Cl)cc21 (single isomer, unassigned) [I-270a, {(1R,2S,4R)-4-[(5-{4-[(1R)-7-chloro-3,4-dihydro-1H-isochromen-1-yl]-5-methyl-2-furoyl}pyrimidin-4-yl)amino]-2-hydroxycyclopentyl}methyl sulfamate or {(1R,2S,4R)-4-[(5-{4-[(1S)-7-chloro-3,4-dihydro-1H-isochromen-1-yl]-5-methyl-2-furoyl}pyrimidin-4-yl)amino]-2-hydroxycyclopentyl}methyl sulfamate]
Concentration 0.111 μM
  Percent Inhibition: 79
  pIC50: 7.00 to 8.00

## COCc1ccc(C(=O)c2cncnc2N[C@@H]2C[C@H](COS(N)(=O)=O)[C@@H](O)C2)o1 [I-212, [(1R,2S,4R)-2-hydroxy-4-({5-[5-(methoxymethyl)-2-furoyl]pyrimidin-4-yl}amino)cyclopentyl]methyl sulfamate]
Concentration 0.111 μM
  inhibition at 0.111 µM: 43%
  pIC50: 6.00 to 7.00

## Cc1sc(C(=O)c2cncnc2N[C@@H]2C[C@H](COS(N)(=O)=O)[C@@H](O)[C@@H]2F)cc1[C@H]1OCCc2ccc(Cl)cc21 (single isomer, unassigned) [I-264b, [(1R,2R,3R,4R)-4-{[5-({4-[(1S)-7-chloro-3,4-dihydro-1H-isochromen-1-yl]-5-methyl-2-thienyl}carbonyl)pyrimidin-4-yl]amino}-3-fluoro-2-hydroxycyclopentyl]methyl sulfamate or [(1R,2R,3R,4R)-4-{[5-({4-[(1R)-7-chloro-3,4-dihydro-1H-isochromen-1-yl]-5-methyl-2-thienyl}carbonyl)pyrimidin-4-yl]amino}-3-fluoro-2-hydroxycyclopentyl]methyl sulfamate]
Concentration 0.111 μM
  Percent Inhibition: 98
  pIC50: > 8.00

## NS(=O)(=O)OC[C@H]1C[C@@H](Nc2ncncc2C(=O)c2cc([C@H](O)c3cccc(Cl)c3)c(Cl)s2)C[C@@H]1O (single isomer, unassigned) [I-9b, [(1R,2S,4R)-4-{[5-({5-chloro-4-[(R)-(3-chlorophenyl)(hydroxy)methyl]-2-thienyl}carbonyl)pyrimidin-4-yl]amino}-2-hydroxycyclopentyl]methyl sulfamate or [(1R,2S,4R)-4-{[5-({5-chloro-4-[(S)-(3-chlorophenyl)(hydroxy)methyl]-2-thienyl}carbonyl)pyrimidin-4-yl]amino}-2-hydroxycyclopentyl]methyl sulfamate]
Concentration 0.111 μM
  Percent Inhibition: 97
  pIC50: > 8.00

## NS(=O)(=O)OC[C@H]1C[C@@H](Nc2ncncc2C(=O)c2cc([C@@]3(c4ccccc4)CCCO3)cs2)C[C@@H]1O (single isomer, unassigned) [I-32b, [(1R,2S,4R)-2-hydroxy-4-{[5-({4-[(2S)-2-phenyltetrahydrofuran-2-yl]-2-thienyl}carbonyl)pyrimidin-4-yl]amino}cyclopentyl]methyl sulfamate or [(1R,2S,4R)-2-hydroxy-4-{[5-({4-[(2R)-2-phenyltetrahydrofuran-2-yl]-2-thienyl}carbonyl)pyrimidin-4-yl]amino}cyclopentyl]methyl sulfamate]
Concentration 0.111 μM
  Percent Inhibition: 90
  pIC50: 7.00 to 8.00

## CN(Cc1csc(C(=O)c2cncnc2N[C@@H]2C[C@H](COS(N)(=O)=O)[C@@H](O)C2)c1)c1cccc(Cl)c1 [I-138, [(1R,2S,4R)-4-({5-[(4-{[(3-Chlorophenyl)(methyl)amino]methyl}-2-thienyl)carbonyl]pyrimidin-4-yl}amino)-2-hydroxycyclopentyl]methyl sulfamate]
Concentration 0.111 μM
  inhibition at 0.111 µM: 96%
  pIC50: > 8.00

## Cc1sc(C(=O)c2cncnc2N[C@@H]2C[C@H](COS(N)(=O)=O)[C@@H](O)C2)cc1[C@H]1OCC(F)(F)c2ccc(Cl)nc21 (mixture of isomers) [I-260, [(1R,2S,4R)-4-{[5-({4-[(8R)-2-chloro-5,5-difluoro-5,8-dihydro-6H-pyrano[3,4-b]pyridin-8-yl]-5-methyl-2-thienyl}carbonyl)pyrimidin-4-yl]amino}-2-hydroxycyclopentyl]methyl sulfamate and [(1R,2S,4R)-4-{[5-({4-[(8S)-2-chloro-5,5-difluoro-5,8-dihydro-6H-pyrano[3,4-b]pyridin-8-yl]-5-methyl-2-thienyl}carbonyl)pyrimidin-4-yl]amino}-2-hydroxycyclopentyl]methyl sulfamate]
Concentration 0.111 μM
  Percent Inhibition: 98
  pIC50: > 8.00

## CN(C)[C@H](c1cccc(Cl)c1)c1csc(C(=O)c2cncnc2N[C@@H]2C[C@H](COS(N)(=O)=O)[C@@H](O)C2)c1 (single isomer, unassigned) [I-153b, [(1R,2S,4R)-4-{[5-({4-[(R)-(3-chlorophenyl)(dimethylamino)methyl]-2-thienyl}carbonyl)pyrimidin-4-yl]amino}-2-hydroxycyclopentyl]methyl sulfamate or [(1R,2S,4R)-4-{[5-({4-[(S)-(3-chlorophenyl)(dimethylamino)methyl]-2-thienyl}carbonyl)pyrimidin-4-yl]amino}-2-hydroxycyclopentyl]methyl sulfamate]
Concentration 0.111 μM
  Percent Inhibition: 92
  pIC50: > 8.00
